Like-named read-outs stand apart in the source and are kept apart here.

This experiment concerns HCV replicon. Put plainly: HCV replicon system in Huh7 cells (Q-RT-PCR of replicon RNA). To be noted: Hepatitis C virus, Huh-7, 96 h.
Setting [1] is: read-out: average EC90 value, corrected for cellular toxicity (ΔΔCt vs rDNA/rRNA).

Protocol: Antiviral testing of candidate compounds for Flaviviridae: The HCV replicon system in Huh7 cells.
Add the test compound immediate after seeding the cells and incubate for a period of 3 to 7 days at 37° C. in an incubator. Media is then removed, and the cells are prepared for total nucleic acid extraction (including replicon RNA and host RNA). Replicon RNA can then be amplified in a Q-RT-PCR protocol, and quantified accordingly. […] In such experiments, one way to express the antiviral effectiveness of a compound is to subtract the threshold RT-PCR cycle of the test compound with the average threshold RT-PCR cycle of the negative control. This value is called DeltaCt (ΔCt or DCt). […] As a positive control, recombinant interferon alfa-2a (Roferon-A, Hoffmann-Roche, New Jersey, USA) is taken alongside as positive control.
In a typical setting, a compound might reduce both the host RNA polymerase activity and the replicon-encoded polymerase activity. Therefore, quantification of rRNA (or any other host RNA polymerase I product) or beta-actin mRNA (or any other host RNA polymerase II) and comparison with RNA levels of the no-drug control is a relative measurement of the effect of the test compound on host RNA polymerases.
With the availability of both the HCV ΔCt data and the rRNA ΔCt, a specificity parameter can be introduced. This parameter is obtained by subtracting both ΔCt values from each other.
In another typical setting, a compound might reduce the host RNA polymerase activity, but not the host DNA polymerase activity. Therefore, quantification of rDNA or beta-actin DNA (or any other host DNA fragment) and comparison with DNA levels of the no-drug control is a relative measurement of the inhibitory effect of the test compound on cellular DNA polymerases
With the availability of both the HCV ΔCt data and the rDNA ΔCt, a specificity parameter can be introduced. This parameter is obtained by subtracting both ΔCt values from each other. […] However, compounds with a ΔΔCt value of less than 2, but with limited molecular cytotoxicty (rDNA ΔCT between 0 and 2) may be desired. […]

In the case of `Nc1ccn([C@@H]2O[C@H](CO)[C@@H](O)[C@H]2F)c(=O)n1` [2′-Deoxy-2′F-Cytidine, 2′-deoxy-2′-fluorocytidine], the EC90 is about 5 µM (read-out: EC90 (1-log reduction of replicon HCV RNA, 3.3 Ct) (converted)) and about 10 µM under setting [1].
For the compound `Nc1ccn([C@@H]2O[C@H](CO)[C@@H](O)C2(F)F)c(=O)n1` [Gemcitabine, β-D-2′,2′-difuoro-2′ deoxycytidine, reference compound], the EC90 under setting [1] was about 0.3 µM.

The values above are taken from patent US20040002476A1, “Modified fluorinated nucleoside analogues” (priority 2002, published 2004).
